Like-named read-outs stand apart in the source and are kept apart here.
Tests used:
U87 = test: Cancer cell growth IC50 (crystal violet); type: cell-based; details: Homo sapiens, U-87 MG, Example 13, 72 h
Description: (§1) Exemplary Embodiments are generally performed as follows, unless otherwise noted. Simvastatin is purchased from Ark Pharm, Inc. (Arlington Heights, IL). Cisplatin (CIS) is purchased from MedKoo Biosciences, Inc. (Chapel Hill, NC). Dihydroartemisinin is purchased from TCI America (Portland, OR). All other chemicals and reagents are purchased from standard sources such as Sigma-Aldrich and/or VWR and are of highest quality available. Puromycin dihydrochloride was purchased from Alfa Aesar (Tewksbury, MA). Deionized water ([…]) used for making solutions is obtained from Milli-Q Direct Ultrapure Water System from Millipore (Billerica, MA, USA). All intermediates are characterized by 1H NMR and mass analysis and the purity of compounds are analyzed by HPLC. 1H NMR data are collected on Bruker 400 MHz spectrometers using standard parameters; chemical shifts are reported in ppm (δ) in reference to residual non-deuterated solvent. ESI mass spectroscopy analysis is performed using a Thermo Fisher LTQ Orbitrap Elite system. IC50 is the half maximal inhibitory concentration and determined is determined by crystal violet assay unless otherwise noted.
(§2) The crystal violet assay is performed as follows, unless otherwise noted. Cell lines are supplemented with RPMI 1640 medium, 10% fetal bovine serum, 1% PenStrep, and placed in a humidified atmosphere containing 5% CO2 at 37° C. 5,000 cells/well renal cancer cells and 10,000 cells/well lymphoma cells are seeded in 96 well plates in 100 microliter medium/per well for 24 h. […] Renal cancer cells are fixed with 3.7% paraformaldehyde for 15 minutes and are stained with Crystal violet solution (0.5% in 25% methanol) for 30 minutes. After rinsing with water cell layers are dried and decolorized with Sorenson citrate with shaking for 20 minutes. Light absorption of the extracted supernatant is read at 595 nm. Lymphoma cell growth was evaluated using MTT and cells are incubated for 4 hours. 100 microliters of isopropanol is added, and the extracted supernatant fraction is read at absorption maximum of 595 nm.
(§3) Standard cell culture conditions typically are RPMI 1640 medium, 10% fetal bovine serum, 1% PenStrep, and are performed in a humidified atmosphere containing 5% CO2 at 37° C. Generally, 5,000 cells/well-10,000 cells/well are seeded in 96 well plates in 100 microliter medium/per well for 24 h, or as described in Example 16, unless otherwise noted. Certain cells require specialized media, growth factors, antibiotics, or culture condition adjustments, as will be apparent to a person of ordinary skill in the art.

C4-2 = test: Cancer cell growth IC50 (crystal violet); type: cell-based; details: C4-2; Example 13; C42; 72 h
Description: as §1, §2, §3

MCF-7 = test: Cancer cell growth IC50 (crystal violet); type: cell-based; details: Homo sapiens, MCF7, Example 13, 72 h
Description: as §1, §2, §3

LNCaP = test: Cancer cell growth IC50 (crystal violet); type: cell-based; details: Homo sapiens, Example 13, 72 h
Description: as §1, §2, §3

C4-2B = test: Cancer cell growth IC50 (crystal violet); type: cell-based
Description: as §1, §2, §3

ARCaP-E = test: Cancer cell growth IC50 (crystal violet); type: cell-based; details: Example 13, 72 h
Description: as §1, §2, §3

PC3M = test: Cancer cell growth IC50 (crystal violet); type: cell-based; details: Homo sapiens, PC-3M, Example 13, 72 h
Description: as §1, §2, §3

PC3 = test: Cancer cell growth IC50 (crystal violet); type: cell-based; details: Homo sapiens, PC-3, Example 13, 72 h
Description: as §1, §2, §3

MIAPaCa II = test: Cancer cell growth IC50 / sensitization (crystal violet); type: cell-based; details: MIA PaCa-2, Example 13, 72 h
Description: as §1
(§4) The crystal violet assay is performed as follows, unless otherwise noted. Cell lines are supplemented with RPMI 1640 medium, 10% fetal bovine serum, 1% PenStrep, and placed in a humidified atmosphere containing 5% CO2 at 37° C. 5,000 cells/well renal cancer cells and 10,000 cells/well lymphoma cells are seeded in 96 well plates in 100 microliter medium/per well for 24 h. […] Renal cancer cells are fixed with 3.7% paraformaldehyde for 15 minutes and are stained with Crystal violet solution (0.5% in 25% methanol) for 30 minutes. After rinsing with water cell layers are dried and decolorized with Sorenson citrate with shaking for 20 minutes. Light absorption of the extracted supernatant is read at 595 nm. Lymphoma cell growth was evaluated using MTT and cells are incubated for 4 hours. 100 microliters of isopropanol is added, and the extracted supernatant fraction is read at absorption maximum of 595 nm. […]

Raji = test: Lymphoma cell growth IC50 (MTT); type: cell-based, human; details: Homo sapiens, Example 13, 72 h, read-out: IC50
Description: as §1, §2, §3
as §2, with “Cell” for “The crystal violet assay is performed as follows, unless otherwise noted. Cell”, “cultured as follows. […]” for “supplemented with RPMI 1640 medium, 10% fetal bovine serum, 1% PenStrep, and placed in a humidified atmosphere containing 5% CO2 at 37° C.”, “is” for “was”

Daudi = test: Lymphoma cell growth IC50 (MTT); type: cell-based, human; details: Homo sapiens, Example 13, 72 h, read-out: IC50
Description: as §1, §2, §3
as §2, with “Cell” for “The crystal violet assay is performed as follows, unless otherwise noted. Cell”, “cultured as follows. […]” for “supplemented with RPMI 1640 medium, 10% fetal bovine serum, 1% PenStrep, and placed in a humidified atmosphere containing 5% CO2 at 37° C.”, “is” for “was”

Ramos = test: Lymphoma cell growth IC50 (MTT); type: cell-based, human; details: Homo sapiens, Example 13, 72 h, read-out: IC50
Description: as §1, §2, §3
as §2, with “Cell” for “The crystal violet assay is performed as follows, unless otherwise noted. Cell”, “cultured as follows. […]” for “supplemented with RPMI 1640 medium, 10% fetal bovine serum, 1% PenStrep, and placed in a humidified atmosphere containing 5% CO2 at 37° C.”, “is” for “was”

Namalwa = test: Lymphoma cell growth IC50 (MTT); type: cell-based, human
Description: as §1, §2, §3
as §2, with “Cell” for “The crystal violet assay is performed as follows, unless otherwise noted. Cell”, “cultured as follows. […]” for “supplemented with RPMI 1640 medium, 10% fetal bovine serum, 1% PenStrep, and placed in a humidified atmosphere containing 5% CO2 at 37° C.”, “is” for “was”

[1] = system: Ramos, a B-cell lymphoma, cultured as 3-D spheroids; test: Cell viability IC50 in 3-D spheroids; type: cell-based, human; details: Homo sapiens; Ramos 3-D spheroids; 72 h; single agent
Description: as §1
Cancer cells were Ramos, a B-cell lymphoma, cultured as 3-D spheroids, cultured according to their standard culturing conditions.

22Rv1 = test: Cancer cell growth IC50 (crystal violet); type: cell-based, human; details: Homo sapiens, Example 13, 72 h
Description: as §1, §4

CTC 752-S-1 = test: Circulating tumor cell growth IC50 / sensitization; type: cell-based, human
Description: as §1, §3
Pancreatic cancer cells are cultured for 72 hours in vitro and exposed to the conventional chemotherapeutic drugs Gemcitabine (GEM) and Paclitaxel (PAC), known to inhibit pancreatic cancer growth in patients. GEM (or PAC) alone are compared to a combination with SIM, or a combination with DZ-SIM. […] Representative results are illustrated in the graphs in FIG. 3.
Cells are cultured according to their standard culturing conditions, and IC50s are determined as described herein-above.
Representative results of the determined IC50s are shown in the table below for the indicated cancer cells cultured in vitro, including CTCs (C752-S-1), B-Cell Lymphoma (Namalwa), prostate cancer cells (C4-2B), and renal cancer cells (Caki-1). The cells are cultured according to their standard culturing conditions, and IC50s are determined as described herein-above.

Caki-1 = test: Renal cancer cell growth IC50 (crystal violet); type: cell-based, human; details: Caki-1, read-out: IC50
Description: as §1, §2, §3
as §2, with “Cell” for “The crystal violet assay is performed as follows, unless otherwise noted. Cell”, “cultured as follows. […]” for “supplemented with RPMI 1640 medium, 10% fetal bovine serum, 1% PenStrep, and placed in a humidified atmosphere containing 5% CO2 at 37° C.”, “is” for “was”

A549 or A549/DDP cells = test: CIS IC50 with constant DZ-SIM ester or amide, Crystal Violet assay; type: cell-based, human; details: combination with CIS; 72 h
Protocol: Cell proliferation is determined by a Crystal Violet assay. The data represent the mean+/−SEM for two assays done in quadruplicate.

22Rv1 tumors = test: Prostate tumor xenograft growth; type: in vivo, mice; details: IP twice per week, 37 days; SIM 1.1 mg/kg, DZ-SIM 5.5 mg/kg, DT 8 mg/kg
Protocol: A human prostate tumor xenograft model, 22Rv1 in immune compromised mice, is employed as follows. 1×10^6 freshly harvested cells of a cultured human prostate carcinoma cell line, 22Rv1, are inoculated s.q. in mice. Mice bearing 22Rv1 tumors (10 tumors/group) are randomized into 7 groups on day-1, and administered drugs by IP (intraperitoneally) at the next day (day-2), and subsequently twice per week, using the following drugs and dosages: a control/vehicle (V, i.e. no drug), DZ (5 μM or 3.9 mg/kg, calculated based on the body weight of mice which averaged 20 grams), SIM (5 μM or 1.1 mg/kg), DZ-SIM (5 μM or 5.5 mg/kg), docetaxel (DT, 8 mg/kg), SIM+DT (drug doses as indicated), and DZ-SIM+DT (drug doses as indicated). Administration is continued for a total of 37 days, and tumor volumes are measured at the indicated times (see FIG. 4). […] Thus therapeutically resistant prostate tumors can be rendered sensitive by DZ-SIM but not SIM.

[2] = Homo sapiens, Example 23, CTC 752-S-1
[3] = Homo sapiens, Example 23, read-out: IC50

CCC(C)(C)C(=O)O[C@H]1C[C@@H](C)C=C2C=C[C@H](C)[C@H](CC[C@@H]3C[C@@H](O)CC(=O)O3)[C@H]21 [SIM, Simvastatin]
IC50 (U87): 506 nM | IC50 (C4-2): 7730 nM | IC50 (MCF-7): 2690 nM | IC50 (LNCaP): 3760 nM | IC50 (C4-2B; Example 13, 72 h): 1880 nM | IC50 (ARCaP-E): 5610 nM | IC50 (PC3M): 248 nM | IC50 (PC3): 991 nM | IC50 (MIAPaCa II): 592 nM | IC50 (Raji): 32500 nM | IC50 (Daudi): 15000 nM | IC50 (Ramos): 13000 nM | IC50 (Namalwa; Homo sapiens, Example 13, 72 h, read-out: IC50): 13400 nM | IC50 [1]: 13000 nM | IC50 (22Rv1): 3520 nM

C[C@@H]1CC[C@H]2[C@@H](C)C(=O)O[C@@H]3O[C@@]4(C)CC[C@@H]1[C@]32OO4 [ART, Artemisinin]
IC50 (C4-2B; Example 22): 657 nM | IC50 (CTC 752-S-1; Homo sapiens, Example 22, CTC 752-S-1, 3D cultured tumor spheroids): > 64000 nM | IC50 (Caki-1; Homo sapiens, Example 22): > 64000 nM | IC50 (Namalwa; Homo sapiens, Example 22, read-out: IC50): > 64000 nM

COc1cccc2c1C(=O)c1c(O)c3c(c(O)c1C2=O)C[C@@](O)(C(=O)CO)C[C@@H]3O[C@H]1C[C@H](NC(=O)CCCCCN2/C(=C/C=C3\CCCC(/C=C/C4=[N+](CCCCS(=O)(=O)[O-])c5ccccc5C4(C)C)=C3Cl)C(C)(C)c3ccccc32)[C@@H](O)[C@H](C)O1 [DZ-Doxorubicin]
IC50 (C4-2B; Example 23): 206 nM | IC50 (CTC 752-S-1; [2]): 3410 nM | IC50 (Caki-1; Homo sapiens, Example 23): > 64000 nM | IC50 (Namalwa; [3]): 6230 nM

CCC(C)(C)C(=O)O[C@H]1C[C@@H](C)C=C2C=C[C@H](C)[C@H](CC[C@@H](O)C[C@@H](O)CC(=O)CCCCNC(=O)CCCCCN3/C(=C/C=C4\CCCC(/C=C/C5=[N+](CCCCS(=O)(=O)[O-])c6ccccc6C5(C)C)=C4Cl)C(C)(C)c4ccccc43)[C@H]21 [DZ-SIM amide]
Sensitization of cancer cells to CIS (A549 or A549/DDP cells): sensitize cancer cells to CIS

CC1CCC2C(C)C(OC(=O)CCCCCN3C(=CC=C4CCCC(C=CC5=[N+](CCCCS(=O)(=O)[O-])c6ccccc6C5(C)C)=C4Cl)C(C)(C)c4ccccc43)OC3OC4(C)CCC1C32OO4 (centres unmarked) [DZ-ART ester]
IC50 (C4-2B; Example 22): 291 nM | IC50 (CTC 752-S-1; Example 22, CTC 752-S-1, 3D cultured tumor spheroids): 1640 nM | IC50 (Caki-1; Example 22): 703 nM | IC50 (Namalwa; Example 22, read-out: IC50): 1300 nM

CC(=O)O[C@@]12CO[C@@H]1C[C@H](O)[C@@]1(C)C(=O)[C@H](O)C3=C(C)[C@@H](OC(=O)[C@H](O)[C@@H](NC(=O)OC(C)(C)C)c4ccccc4)C[C@@](O)([C@@H](OC(=O)c4ccccc4)[C@H]21)C3(C)C [DT, Docetaxel]
Growth of 22Rv1 tumors in vivo (tumor volume) (22Rv1 tumors): ineffective

COc1ccc(C[C@H](N)C(=O)N[C@H]2[C@@H](O)[C@H](n3cnc4c(N(C)C)ncnc43)O[C@@H]2CO)cc1 [Puromycin]
IC50 (C4-2B; Example 23): 249 nM | IC50 (CTC 752-S-1; [2]): 4870 nM | IC50 (Caki-1; Homo sapiens, Example 23): 740 nM | IC50 (Namalwa; [3]): 969 nM

COc1ccc(C[C@H](NC(=O)CCCCCN2/C(=C/C=C3\CCCC(/C=C/C4=[N+](CCCCS(=O)(=O)[O-])c5ccccc5C4(C)C)=C3Cl)C(C)(C)c3ccccc32)C(=O)NC2C(CO)OC(n3cnc4c(N(C)C)ncnc43)C2O)cc1 (some centres unmarked) [DZ-Puromycin]
IC50 (C4-2B; Example 23): 1320 nM | IC50 (CTC 752-S-1; [2]): 31400 nM | IC50 (Caki-1; Homo sapiens, Example 23): > 64000 nM | IC50 (Namalwa; [3]): 22400 nM

COc1cccc2c1C(=O)c1c(O)c3c(c(O)c1C2=O)C[C@@](O)(C(=O)CO)C[C@@H]3O[C@H]1C[C@H](N)[C@H](O)[C@H](C)O1 [Doxorubicin]
IC50 (C4-2B; Example 23): 43.1 nM | IC50 (CTC 752-S-1; [2]): 1820 nM | IC50 (Caki-1; Homo sapiens, Example 23): 880 nM | IC50 (Namalwa; [3]): 666 nM

From patent US12121510B2 (Cedars-Sinai Medical Center, priority 2016, dated 2024)
